Assay results: paper PMC6704710, “Preclinical evaluation of 3D185, a novel potent inhibitor of FGFR1/2/3 and CSF-1R, in FGFR-dependent and macrophage-dominant cancer models” (Journal of Experimental & Clinical Cancer Research : CR, 2019)

Tests used:
Assay in all cases: Eurofins kinase panel
Type in all cases: biochemical
Settings in all cases: read-out: Inhibition rate (%)
[1] = molecular target: T1, ATM(h) (Homo sapiens, UniProt Q13315)
T1 construct: purchased Eurofins (KinaseProfiler)

[2] = molecular target: T2, CDK5/p35(h) (Homo sapiens, UniProt Q00535)
T2 construct: purchased Eurofins (KinaseProfiler)
T2 sequence (Q00535 whole entry): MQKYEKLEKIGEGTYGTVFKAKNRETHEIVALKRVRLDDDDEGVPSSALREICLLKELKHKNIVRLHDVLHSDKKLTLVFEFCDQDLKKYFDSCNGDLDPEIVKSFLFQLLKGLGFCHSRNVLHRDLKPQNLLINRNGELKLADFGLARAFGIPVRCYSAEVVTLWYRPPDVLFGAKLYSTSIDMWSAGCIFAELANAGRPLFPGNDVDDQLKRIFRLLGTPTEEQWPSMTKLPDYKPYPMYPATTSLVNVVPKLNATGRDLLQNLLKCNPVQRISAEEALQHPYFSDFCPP
T2 sequence (Q15078 whole entry partner): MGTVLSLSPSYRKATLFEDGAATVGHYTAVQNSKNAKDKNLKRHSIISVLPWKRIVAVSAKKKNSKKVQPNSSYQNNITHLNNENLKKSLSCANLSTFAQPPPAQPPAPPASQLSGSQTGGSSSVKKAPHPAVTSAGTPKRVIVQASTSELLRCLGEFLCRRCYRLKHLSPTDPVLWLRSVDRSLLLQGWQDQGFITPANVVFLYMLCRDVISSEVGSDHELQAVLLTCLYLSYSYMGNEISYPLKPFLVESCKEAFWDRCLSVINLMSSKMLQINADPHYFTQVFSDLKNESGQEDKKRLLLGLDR

[3] = molecular target: T3, DCAMKL3(h) (Homo sapiens, UniProt Q9C098)
T3 construct: purchased Eurofins (KinaseProfiler)
T3 sequence (Q9C098 1-648): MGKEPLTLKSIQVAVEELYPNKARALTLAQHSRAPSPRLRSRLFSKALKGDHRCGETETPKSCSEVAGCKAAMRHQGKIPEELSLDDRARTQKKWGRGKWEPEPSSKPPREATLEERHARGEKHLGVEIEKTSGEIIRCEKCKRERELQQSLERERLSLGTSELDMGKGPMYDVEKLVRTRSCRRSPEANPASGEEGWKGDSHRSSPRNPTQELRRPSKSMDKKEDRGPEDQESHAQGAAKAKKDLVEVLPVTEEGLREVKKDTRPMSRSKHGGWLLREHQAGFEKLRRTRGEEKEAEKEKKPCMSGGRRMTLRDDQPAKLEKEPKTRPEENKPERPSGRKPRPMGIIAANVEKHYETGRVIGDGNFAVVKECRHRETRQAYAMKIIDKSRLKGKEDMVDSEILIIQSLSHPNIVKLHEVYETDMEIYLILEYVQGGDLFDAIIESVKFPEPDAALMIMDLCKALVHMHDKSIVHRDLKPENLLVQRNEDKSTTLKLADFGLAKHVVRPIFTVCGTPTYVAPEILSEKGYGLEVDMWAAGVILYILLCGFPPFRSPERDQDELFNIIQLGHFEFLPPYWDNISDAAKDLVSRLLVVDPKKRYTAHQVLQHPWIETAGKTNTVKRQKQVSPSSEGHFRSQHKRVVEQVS

[4] = molecular target: T4, GCN2(h) (Homo sapiens, UniProt Q9P2K8)
T4 construct: purchased Eurofins (KinaseProfiler)

[5] = molecular target: T5, MAK(h) (Homo sapiens, UniProt P20794)
T5 construct: purchased Eurofins (KinaseProfiler)
T5 sequence (P20794 1-623): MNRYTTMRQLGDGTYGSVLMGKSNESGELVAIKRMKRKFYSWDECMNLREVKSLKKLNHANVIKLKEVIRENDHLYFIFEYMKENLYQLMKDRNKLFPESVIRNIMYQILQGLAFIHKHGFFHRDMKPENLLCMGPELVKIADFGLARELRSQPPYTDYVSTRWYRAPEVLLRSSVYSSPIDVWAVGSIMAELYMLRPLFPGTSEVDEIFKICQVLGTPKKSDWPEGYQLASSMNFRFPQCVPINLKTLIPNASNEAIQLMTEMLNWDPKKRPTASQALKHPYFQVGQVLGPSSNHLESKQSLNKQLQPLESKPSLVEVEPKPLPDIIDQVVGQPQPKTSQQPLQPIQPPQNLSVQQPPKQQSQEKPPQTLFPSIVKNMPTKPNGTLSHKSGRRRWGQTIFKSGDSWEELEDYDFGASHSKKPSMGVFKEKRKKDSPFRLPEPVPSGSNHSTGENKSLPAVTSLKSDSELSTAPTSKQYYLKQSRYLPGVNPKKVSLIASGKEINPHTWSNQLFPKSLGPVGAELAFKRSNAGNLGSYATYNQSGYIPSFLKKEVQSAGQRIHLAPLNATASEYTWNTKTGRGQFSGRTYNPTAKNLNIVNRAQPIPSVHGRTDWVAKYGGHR

[6] = molecular target: T6, MARK4(h) (Homo sapiens, UniProt Q96L34)
T6 construct: purchased Eurofins (KinaseProfiler)
T6 sequence (Q96L34 1-752): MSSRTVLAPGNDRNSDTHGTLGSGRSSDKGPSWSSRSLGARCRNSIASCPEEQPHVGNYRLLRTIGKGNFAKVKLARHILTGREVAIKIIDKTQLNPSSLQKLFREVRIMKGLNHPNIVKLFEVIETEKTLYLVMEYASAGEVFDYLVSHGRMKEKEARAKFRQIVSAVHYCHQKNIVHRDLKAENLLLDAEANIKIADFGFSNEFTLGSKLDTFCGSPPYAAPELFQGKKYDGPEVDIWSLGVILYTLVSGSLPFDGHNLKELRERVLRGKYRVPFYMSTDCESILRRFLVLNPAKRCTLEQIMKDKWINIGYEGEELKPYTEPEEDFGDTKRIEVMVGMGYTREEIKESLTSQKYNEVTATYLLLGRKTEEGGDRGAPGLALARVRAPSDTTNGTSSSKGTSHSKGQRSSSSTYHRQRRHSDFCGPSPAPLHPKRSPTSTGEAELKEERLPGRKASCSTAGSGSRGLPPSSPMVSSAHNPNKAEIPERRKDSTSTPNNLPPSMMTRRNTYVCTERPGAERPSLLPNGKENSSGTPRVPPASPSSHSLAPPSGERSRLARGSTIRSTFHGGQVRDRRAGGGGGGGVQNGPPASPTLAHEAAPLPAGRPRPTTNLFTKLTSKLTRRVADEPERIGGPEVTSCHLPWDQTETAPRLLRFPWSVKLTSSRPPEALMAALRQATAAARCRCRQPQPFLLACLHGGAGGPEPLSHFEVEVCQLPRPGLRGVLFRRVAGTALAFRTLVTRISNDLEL

[7] = molecular target: T7, PAK5(h) (Homo sapiens, UniProt Q9P286)
T7 construct: purchased Eurofins (KinaseProfiler)
T7 sequence (Q9P286 whole entry): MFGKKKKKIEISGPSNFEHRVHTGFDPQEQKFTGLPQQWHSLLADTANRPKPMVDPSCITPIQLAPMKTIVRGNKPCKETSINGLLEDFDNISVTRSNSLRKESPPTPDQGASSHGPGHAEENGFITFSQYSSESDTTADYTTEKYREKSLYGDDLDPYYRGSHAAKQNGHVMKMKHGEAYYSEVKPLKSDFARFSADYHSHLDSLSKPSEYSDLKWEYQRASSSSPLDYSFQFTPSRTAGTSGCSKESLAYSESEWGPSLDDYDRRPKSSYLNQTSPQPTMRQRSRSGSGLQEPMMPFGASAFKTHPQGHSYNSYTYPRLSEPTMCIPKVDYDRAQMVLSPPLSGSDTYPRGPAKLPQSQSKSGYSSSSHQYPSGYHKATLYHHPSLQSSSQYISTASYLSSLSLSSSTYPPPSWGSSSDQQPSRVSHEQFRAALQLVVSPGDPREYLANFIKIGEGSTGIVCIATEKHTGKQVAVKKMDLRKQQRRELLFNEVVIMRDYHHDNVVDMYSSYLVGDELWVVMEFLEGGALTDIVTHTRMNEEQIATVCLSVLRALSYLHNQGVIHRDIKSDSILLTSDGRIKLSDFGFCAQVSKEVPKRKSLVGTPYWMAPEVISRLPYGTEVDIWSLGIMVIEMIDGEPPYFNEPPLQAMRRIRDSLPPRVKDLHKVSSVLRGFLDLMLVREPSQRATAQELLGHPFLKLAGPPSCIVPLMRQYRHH

[8] = molecular target: T8, TAF1L(h) (Homo sapiens, UniProt Q8IZX4)
T8 construct: purchased Eurofins (KinaseProfiler)

[9] = molecular target: T9, TGFBR2(h) (Homo sapiens, UniProt P37173)
T9 construct: purchased Eurofins (KinaseProfiler)
T9 sequence (P37173 23-567): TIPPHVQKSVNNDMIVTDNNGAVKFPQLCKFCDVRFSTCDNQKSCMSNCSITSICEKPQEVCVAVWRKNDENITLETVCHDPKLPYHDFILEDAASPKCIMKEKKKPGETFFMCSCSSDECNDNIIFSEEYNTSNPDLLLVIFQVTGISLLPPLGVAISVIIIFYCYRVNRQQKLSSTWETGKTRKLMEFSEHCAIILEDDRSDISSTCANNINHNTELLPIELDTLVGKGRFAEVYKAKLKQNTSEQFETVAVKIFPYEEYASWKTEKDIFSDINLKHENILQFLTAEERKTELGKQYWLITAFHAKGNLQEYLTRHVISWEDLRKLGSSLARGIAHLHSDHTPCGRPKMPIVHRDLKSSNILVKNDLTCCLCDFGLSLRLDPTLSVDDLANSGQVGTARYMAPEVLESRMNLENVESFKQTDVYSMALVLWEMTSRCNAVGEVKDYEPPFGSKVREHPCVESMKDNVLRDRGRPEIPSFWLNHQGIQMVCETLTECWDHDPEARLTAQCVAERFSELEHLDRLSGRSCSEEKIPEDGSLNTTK

T1 sequence (Q13315 whole entry): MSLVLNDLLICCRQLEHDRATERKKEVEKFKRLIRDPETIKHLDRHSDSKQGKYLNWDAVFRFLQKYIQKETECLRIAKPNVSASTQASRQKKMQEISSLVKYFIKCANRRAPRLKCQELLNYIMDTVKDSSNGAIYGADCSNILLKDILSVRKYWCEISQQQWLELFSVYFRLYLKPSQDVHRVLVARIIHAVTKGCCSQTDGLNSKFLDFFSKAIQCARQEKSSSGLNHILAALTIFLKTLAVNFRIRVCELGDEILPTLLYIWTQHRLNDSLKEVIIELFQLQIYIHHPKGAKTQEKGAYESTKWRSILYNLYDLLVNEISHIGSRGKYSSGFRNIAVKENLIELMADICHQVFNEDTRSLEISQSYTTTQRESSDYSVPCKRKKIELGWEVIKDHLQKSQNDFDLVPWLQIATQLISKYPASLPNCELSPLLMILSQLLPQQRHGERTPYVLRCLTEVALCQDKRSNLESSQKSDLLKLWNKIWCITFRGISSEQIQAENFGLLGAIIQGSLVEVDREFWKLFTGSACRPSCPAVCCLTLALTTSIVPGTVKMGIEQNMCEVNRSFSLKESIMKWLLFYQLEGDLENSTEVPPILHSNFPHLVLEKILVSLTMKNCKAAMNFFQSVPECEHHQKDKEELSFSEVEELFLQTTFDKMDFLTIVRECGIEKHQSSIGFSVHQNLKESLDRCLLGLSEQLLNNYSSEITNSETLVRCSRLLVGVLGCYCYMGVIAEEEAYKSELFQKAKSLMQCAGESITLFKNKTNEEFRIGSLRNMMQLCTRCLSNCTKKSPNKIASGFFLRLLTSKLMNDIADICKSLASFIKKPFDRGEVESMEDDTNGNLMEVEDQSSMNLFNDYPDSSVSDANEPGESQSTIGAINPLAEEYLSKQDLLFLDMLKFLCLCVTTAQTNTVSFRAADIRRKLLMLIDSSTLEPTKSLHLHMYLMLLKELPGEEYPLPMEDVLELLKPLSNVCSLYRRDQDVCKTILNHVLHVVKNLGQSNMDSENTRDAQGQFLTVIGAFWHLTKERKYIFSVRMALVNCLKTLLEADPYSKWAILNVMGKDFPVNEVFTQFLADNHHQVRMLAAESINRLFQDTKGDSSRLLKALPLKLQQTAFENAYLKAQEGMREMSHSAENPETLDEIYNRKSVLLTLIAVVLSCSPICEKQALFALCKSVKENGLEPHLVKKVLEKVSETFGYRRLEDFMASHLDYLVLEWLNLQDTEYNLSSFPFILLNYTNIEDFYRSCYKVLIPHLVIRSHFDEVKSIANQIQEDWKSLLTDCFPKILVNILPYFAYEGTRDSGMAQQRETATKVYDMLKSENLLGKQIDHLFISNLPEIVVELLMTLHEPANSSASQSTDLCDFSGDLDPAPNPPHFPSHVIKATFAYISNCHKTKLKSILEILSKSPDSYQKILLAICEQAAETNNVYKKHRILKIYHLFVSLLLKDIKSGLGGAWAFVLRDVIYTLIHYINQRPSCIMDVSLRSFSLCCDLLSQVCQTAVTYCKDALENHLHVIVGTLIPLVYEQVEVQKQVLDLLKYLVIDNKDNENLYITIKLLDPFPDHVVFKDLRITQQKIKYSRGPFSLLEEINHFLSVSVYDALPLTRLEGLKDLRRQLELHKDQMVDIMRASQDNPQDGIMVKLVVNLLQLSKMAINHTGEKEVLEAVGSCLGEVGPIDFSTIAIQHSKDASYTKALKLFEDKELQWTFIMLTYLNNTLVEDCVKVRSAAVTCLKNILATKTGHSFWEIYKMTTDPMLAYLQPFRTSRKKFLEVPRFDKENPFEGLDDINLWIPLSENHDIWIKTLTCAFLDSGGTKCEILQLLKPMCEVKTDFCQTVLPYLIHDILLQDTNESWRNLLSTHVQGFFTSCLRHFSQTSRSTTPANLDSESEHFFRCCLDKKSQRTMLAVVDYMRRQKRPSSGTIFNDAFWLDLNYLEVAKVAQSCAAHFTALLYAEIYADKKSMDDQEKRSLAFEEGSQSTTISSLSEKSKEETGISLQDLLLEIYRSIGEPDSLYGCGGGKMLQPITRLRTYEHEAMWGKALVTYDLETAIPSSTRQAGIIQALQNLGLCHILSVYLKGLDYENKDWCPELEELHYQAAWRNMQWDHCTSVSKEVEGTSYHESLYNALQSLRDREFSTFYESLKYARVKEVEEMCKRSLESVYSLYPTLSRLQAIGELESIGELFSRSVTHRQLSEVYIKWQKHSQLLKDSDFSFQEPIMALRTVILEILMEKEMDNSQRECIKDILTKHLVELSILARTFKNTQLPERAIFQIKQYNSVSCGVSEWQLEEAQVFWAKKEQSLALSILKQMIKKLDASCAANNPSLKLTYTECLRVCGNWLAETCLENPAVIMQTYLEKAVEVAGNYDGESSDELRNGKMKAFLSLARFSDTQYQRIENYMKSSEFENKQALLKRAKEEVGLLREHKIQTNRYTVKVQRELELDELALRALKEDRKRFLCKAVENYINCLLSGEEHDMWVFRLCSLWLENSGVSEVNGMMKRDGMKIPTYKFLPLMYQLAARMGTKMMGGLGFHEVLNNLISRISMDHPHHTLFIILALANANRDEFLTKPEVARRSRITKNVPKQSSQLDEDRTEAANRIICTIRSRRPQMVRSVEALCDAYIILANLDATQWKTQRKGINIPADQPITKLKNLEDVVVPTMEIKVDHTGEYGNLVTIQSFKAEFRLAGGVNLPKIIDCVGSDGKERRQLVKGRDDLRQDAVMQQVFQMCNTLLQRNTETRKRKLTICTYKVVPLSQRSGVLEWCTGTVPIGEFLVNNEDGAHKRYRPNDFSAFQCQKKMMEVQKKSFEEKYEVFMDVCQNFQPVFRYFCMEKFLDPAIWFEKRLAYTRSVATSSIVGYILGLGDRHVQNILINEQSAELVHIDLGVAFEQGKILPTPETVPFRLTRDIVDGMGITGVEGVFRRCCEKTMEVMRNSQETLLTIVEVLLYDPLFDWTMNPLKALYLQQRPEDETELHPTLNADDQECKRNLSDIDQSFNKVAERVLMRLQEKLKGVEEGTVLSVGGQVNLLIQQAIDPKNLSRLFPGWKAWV

## COc1cc(OC)c(Cl)c(-c2ccc3c(NC(=O)c4ccc(N5CCNC(C)(C)C5)cc4)n[nH]c3n2)c1Cl [3D185]
[1]; 10 nM
  inhibition at 0.01 µM: -3%
[1]; 100 nM
  inhibition at 0.1 µM: -5%
[1]; 1000 nM
  inhibition at 1 µM: -5%
[2]; 10 nM
  inhibition at 0.01 µM: 19%
[2]; 100 nM
  inhibition at 0.1 µM: 17%
[2]; 1000 nM
  inhibition at 1 µM: 12%
[3]; 10 nM
  inhibition at 0.01 µM: 5%
[3]; 100 nM
  inhibition at 0.1 µM: 7%
[3]; 1000 nM
  inhibition at 1 µM: 16%
[4]; 10 nM
  inhibition at 0.01 µM: 3%
[4]; 100 nM
  inhibition at 0.1 µM: -12%
[4]; 1000 nM
  inhibition at 1 µM: -49%
[5]; 10 nM
  inhibition at 0.01 µM: -1%
[5]; 100 nM
  inhibition at 0.1 µM: -9%
[5]; 1000 nM
  inhibition at 1 µM: -17%
[6]; 10 nM
  inhibition at 0.01 µM: 3%
[6]; 100 nM
  inhibition at 0.1 µM: 5%
[6]; 1000 nM
  inhibition at 1 µM: -2%
[7]; 10 nM
  inhibition at 0.01 µM: -11%
[7]; 100 nM
  inhibition at 0.1 µM: -2%
[7]; 1000 nM
  inhibition at 1 µM: 5%
[8]; 10 nM
  inhibition at 0.01 µM: -4%
[8]; 100 nM
  inhibition at 0.1 µM: -9%
[8]; 1000 nM
  inhibition at 1 µM: -9%
[9]; 10 nM
  inhibition at 0.01 µM: -10%
[9]; 100 nM
  inhibition at 0.1 µM: -5%
[9]; 1000 nM
  inhibition at 1 µM: -9%
